# Results reported in US20080200441A1, “ESTROGEN RECEPTOR MODULATORS ASSOCIATED PHARMACEUTICAL COMPOSITIONS AND METHODS OF USE” (University of Southern California, priority 2007, published 2008).
# How the values were obtained:
# [1] = test system: rat primary hippocampal neurons; assay: Neuroprotective efficacy (NE) against glutamate-induced neurotoxicity over time; type: cell-based; conditions: for Neuroprotective efficacy 2 hours after glutamate exposure / Neuroprotective efficacy 5 hours after glutamate exposure / Neuroprotective efficacy 7.5 hours after glutamate exposure / Neuroprotective efficacy 10 minutes after glutamate exposure: glutamate 200 μM; for time course of neuroprotection: early vs later time points after glutamate
# Method: FIGS. 13A-E are graphs showing the neuroprotective efficacy of NS2 (FIG. 13A); NS1-1 (FIG. 13B); NS1-2 (FIG. 13C); NS1-3 (FIG. 13D); and NS1-4 (FIG. 13E) against glutamate-induced neurotoxicity in rat primary hippocampal neurons as a function of time and concentration (nM).
# The assay for evaluating neuroprotective efficacy after glutamate exposure is discussed above. The following compounds were evaluated: NS2; NS1-1; NS1-2; NS1-3; and NS1-4. The results are shown in the Tables 4-8 and are presented graphically in FIGS. 13A-E.
# Results are presented as neuroprotective efficacy (NE), which is defined as the percentage of neurotoxin-induced toxicity prevented by the test compounds (or combinations) and quantified by the equation:
# NE=(Vtreatment−Vneurotoxin)/(Vcontrol−Vneurotoxin)*100%
# where Vtreatment is the individual value from the test compounds (or combinations)-treated cultures, Vneurotoxin is a mean value from glutamate treated cultures, and Vcontrol is a mean value from vehicle-treated control cultures.
# full-length human ERα = target: T1, full-length human ERα (Homo sapiens, UniProt P03372); assay: Fluorescence polarization-based competitive binding assay, ERα
# T1 sequence (P03372 1-595): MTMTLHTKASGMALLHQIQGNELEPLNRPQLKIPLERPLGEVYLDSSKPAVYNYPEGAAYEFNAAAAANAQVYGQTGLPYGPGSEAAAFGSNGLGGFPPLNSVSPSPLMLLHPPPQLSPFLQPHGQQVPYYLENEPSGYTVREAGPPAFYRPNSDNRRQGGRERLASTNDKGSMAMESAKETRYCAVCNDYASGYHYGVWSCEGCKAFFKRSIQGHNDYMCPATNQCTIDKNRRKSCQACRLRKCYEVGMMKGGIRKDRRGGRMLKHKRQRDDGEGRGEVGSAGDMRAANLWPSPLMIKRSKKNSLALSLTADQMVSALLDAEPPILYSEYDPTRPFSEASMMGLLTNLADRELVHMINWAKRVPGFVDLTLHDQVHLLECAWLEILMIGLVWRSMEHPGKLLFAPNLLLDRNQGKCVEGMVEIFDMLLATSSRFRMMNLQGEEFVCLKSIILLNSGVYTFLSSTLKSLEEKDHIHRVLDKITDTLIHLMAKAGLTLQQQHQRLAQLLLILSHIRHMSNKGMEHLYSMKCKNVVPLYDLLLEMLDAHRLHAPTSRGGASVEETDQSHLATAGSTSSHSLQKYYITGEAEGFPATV
# full-length human ERβ = full-length human ERβ (Homo sapiens, UniProt Q92731); assay: Fluorescence polarization-based competitive binding assay, ERβ
# Sequence of full-length human ERβ (Q92731 whole entry): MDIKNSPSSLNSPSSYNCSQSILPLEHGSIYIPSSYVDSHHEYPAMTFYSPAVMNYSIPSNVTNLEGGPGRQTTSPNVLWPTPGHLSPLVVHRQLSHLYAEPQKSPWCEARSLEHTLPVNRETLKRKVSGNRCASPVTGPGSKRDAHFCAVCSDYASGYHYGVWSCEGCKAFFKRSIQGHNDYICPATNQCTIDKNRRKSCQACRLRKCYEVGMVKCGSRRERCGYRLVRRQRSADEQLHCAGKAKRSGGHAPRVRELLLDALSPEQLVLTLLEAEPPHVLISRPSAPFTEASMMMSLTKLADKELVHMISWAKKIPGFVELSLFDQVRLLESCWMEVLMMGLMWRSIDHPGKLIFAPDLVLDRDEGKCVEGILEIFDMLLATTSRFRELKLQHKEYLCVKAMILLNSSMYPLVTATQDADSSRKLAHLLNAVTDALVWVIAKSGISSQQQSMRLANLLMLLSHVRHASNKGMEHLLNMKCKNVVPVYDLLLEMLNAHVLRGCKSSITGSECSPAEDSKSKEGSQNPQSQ
# [2] = test system: rat primary hippocampal neurons; assay: Neuroprotection against glutamate-induced neurotoxicity, LDH release; type: cell-based
# [3] = test system: rat primary hippocampal neurons; assay: Neuroprotection against glutamate-induced neurotoxicity, calcein AM staining; type: cell-based
# Description: The combined use of Calcein AM and Ethidium Homodimer-1 (Molecular Probes, Inc., Eugene, Oreg.) provides a two-color fluorescence analysis that allows simultaneous determination of live and dead cells with two probes that measure two recognized parameters of cell viability respectively, intracellular esterase activity and plasma membrane integrity. Calcein AM is a fluorogenic esterase substrate that enters the live cells through permeability and is enzymatically hydrolyzed to form the polyanionic dye calcein, which is well retained within live cells due to the intact plasma membranes and produces an intense uniform green fluorescence at 530 nm. Ethidium homodimer is excluded from live cells and only able to enter cells through compromised plasma membranes and binds to nucleic acid by intercalating between the base pairs, producing a bright red fluorescence at 645 nm. Therefore, Calcein AM and ethidium homodimer serve as two indicators for the identification of live and dead cells respectively.
# Cultures were rinsed with phosphate-buffered saline (PBS) and incubated with the combined 1 μM calcein AM and 2 μM ethidium homodimer PBS solution at room temperature for 30 min. The fluorescence intensities were measured on a SpectraMax GEMINI EM dual-wavelength-scanning microplate spectrofluometer (Molecular Devices Corp., Sunnyvale, Calif.) using appropriate excitation and emission filter combinations (485/530 nm for calcein AM and 530/645 nm for ethidium homodimer).
# MCF-7 cells = assay: MCF-7 cell proliferation, MTT; type: cell-based, human; conditions: 3 days, serially diluted concentrations, MTT at 570 nm
# Bcl-2 = Bcl-2 expression, Western immunoblotting; conditions: 100 nM, 48 h
# spinophilin = assay: Spinophilin expression in hippocampal neurons; conditions: 100 nM, 48 h
# ERK2 = assay: ERK phosphorylation, Western immunoblotting; conditions: 10 nM, 30 min
Structure (SMILES),Neuroprotective efficacy 2 hours after glutamate exposure ([1]; 1 nM) [%],Neuroprotective efficacy 2 hours after glutamate exposure ([1]; 10 nM) [%],Neuroprotective efficacy 2 hours after glutamate exposure ([1]; 100 nM) [%],Neuroprotective efficacy 2 hours after glutamate exposure ([1]; 1000 nM) [%],time course of neuroprotection [1],Neuroprotective efficacy 7.5 hours after glutamate exposure ([1]; 1 nM) [%],Neuroprotective efficacy 7.5 hours after glutamate exposure ([1]; 10 nM) [%],Neuroprotective efficacy 7.5 hours after glutamate exposure ([1]; 100 nM) [%],Neuroprotective efficacy 7.5 hours after glutamate exposure ([1]; 1000 nM) [%],also measured
CCCCCCCCCCCCCCCC[C@@H]1Cc2cc(O)ccc2C2CC[C@@]3(C)C(CC[C@@H]3O)C21 (stereo partly drawn) [NS1-1],12.7957,41.8183,77.2530,70.8102,neuroprotective at early time points with diminished protection at later time points,,,,,Neuroprotective efficacy 5 hours after glutamate exposure ([1]; 1 nM): 3.769%; Neuroprotective efficacy 5 hours after glutamate exposure ([1]; 10 nM): 20.8614%; Neuroprotective efficacy 5 hours after glutamate exposure ([1]; 100 nM): 23.8415%; Neuroprotective efficacy 5 hours after glutamate exposure ([1]; 1000 nM): 11.9900%
C[C@]12CCC3c4ccc(O)cc4C[C@@H](CCCCCCCCCCCCCCCCOCc4ccccc4)C3C1CC[C@@H]2O (stereo partly drawn) [NS1-3],15.44,55.77,87.33,78.43,neuroprotective at early time points with diminished protection at later time points,8.102,28.06,51.87,53.3893,
"CC(C)CCC[C@@H](C)CCC[C@@H](C)CCC[C@@H]1Cc2cc(O)ccc2C2CC[C@@]3(C)C(CC[C@@H]3O)C21 (stereo partly drawn) [NS1, 7α-[(4R,8R)-4,8,12-trimethyltridecyl]estra-1,3,5-trien-3,17β-diol]",,,,,,,,,,"IC50 (full-length human ERα): 193 nM; IC50 (full-length human ERβ; competition with EL Red): 267 nM; less potency than 17β-estradiol and ICI 182,780 in neuroprotection [2]: 10 fold; increase in neuronal membrane integrity compared with glutamate alone (LDH release) ([2]; 1 nM): 38.6±3.8%; increase in neuronal membrane integrity compared with glutamate alone (LDH release) ([2]; 10 nM): 44.1±3.8%; increase in neuronal membrane integrity compared with glutamate alone (LDH release) ([2]; 100 nM): 67.0±4.0%; increase in neuronal membrane integrity compared with glutamate alone (LDH release) ([2]; 1000 nM): 59.1±3.7%; increase in neuronal metabolic viability compared with glutamate alone (calcein AM) ([3]; 1 nM): 2.7±3.2%; increase in neuronal metabolic viability compared with glutamate alone (calcein AM) ([3]; 10 nM): 9.3±3.7%; increase in neuronal metabolic viability compared with glutamate alone (calcein AM) ([3]; 100 nM): 28.4±3.2%; increase in neuronal metabolic viability compared with glutamate alone (calcein AM) ([3]; 1000 nM): 25.6±4.4%; MCF-7 cell proliferation (MCF-7 cells): does not induce MCF-7 cell proliferation; increase in Bcl-2 expression compared to vehicle (Bcl-2): 23.4±6.8%; increase in spinophilin expression compared to vehicle (spinophilin): 61.7±8.2%"
C[C@]12CCC3c4ccc(O)cc4C[C@@H](CCCCCCCCCCCCCCCCO)C3C1CC[C@@H]2O (stereo partly drawn) [NS1-2],17.5192,51.3940,32.3028,24.9982,neuroprotective at early time points and increases in magnitude at later time points,26.5265,76.6877,93.0520,47.1665,
C[C@]12CC[C@@H]3c4ccc(O)cc4CC[C@H]3[C@@H]1CC[C@@H]2O [17β-estradiol],,,,,,,,,,increase in ERK2 phosphorylation compared to vehicle (ERK2): 38.0±7.7%
"CC(=O)[C@H]1CC[C@H]2[C@@H]3CCC4=CC(=O)CC[C@]4(C)[C@H]3CC[C@]12C [progesterone, reference compound]",,,,,,,,,,binding to ERα (full-length human ERα; negative control): does not bind; binding to ERβ (full-length human ERβ; negative control): does not bind
CC(C)=CCC/C(C)=C/CC/C(C)=C/CC1=C(c2ccc(O)cc2)C(=O)c2ccc(O)cc2C1=O [NS2],3.937,30.96,68.16,73.84,neuroprotective at early time points and increases in magnitude at later time points,,,,,Neuroprotective efficacy 10 minutes after glutamate exposure ([1]; 1 nM): −10.3103%; Neuroprotective efficacy 5 hours after glutamate exposure ([1]; 1 nM): 24.94%; Neuroprotective efficacy 10 minutes after glutamate exposure ([1]; 10 nM): −3.6302%; Neuroprotective efficacy 5 hours after glutamate exposure ([1]; 10 nM): 44%; Neuroprotective efficacy 10 minutes after glutamate exposure ([1]; 100 nM): 33.68%; Neuroprotective efficacy 5 hours after glutamate exposure ([1]; 100 nM): 71.35%; Neuroprotective efficacy 10 minutes after glutamate exposure ([1]; 1000 nM): 40.51%; Neuroprotective efficacy 5 hours after glutamate exposure ([1]; 1000 nM): 76.45%
CC(C)CCC[C@@H](C)CCC[C@@H](C)CCC[C@H](C)CC[C@@H]1Cc2cc(O)ccc2C2CC[C@@]3(C)C(CC[C@@H]3O)C21 (stereo partly drawn) [NS1-4],51.86,86.27,110.3902,94.3991,neuroprotective at early time points with diminished protection at later time points,8.415,28.8,69.76,38.0418,
